Results as given in publication PMC10525924, “Engineering and Purification of Microcin C7 Variants Resistant to Trypsin and Analysis of Their Biological Activity” (Antibiotics, 2023).
Entries after “also recorded” stand apart in the source; their conditions may differ. Where a SMILES comes first, the peptide text is derived from it. Where no end group is shown, it is not given here.

Experiments:
E. coli K88 = assay: microbe, parasite or virus in culture; format: cell-based; settings: agar diffusion, fermentation supernatant, not trypsin-treated
chymotrypsin [1] = assay: Remaining amount by RP-HPLC after chymotrypsin treatment; format: in vitro ADME; settings: chymotrypsin (isolated protease); chymotrypsin treated for 3 h; read-out RP-HPLC; Table S2
pepsin = assay: Remaining amount by RP-HPLC after pepsin treatment; format: in vitro ADME; settings: pepsin (isolated protease); pepsin treated for 3 h; read-out RP-HPLC; Table S2
indicator bacteria = settings: second to seventh codons of mccA replaced; cited from earlier work
Excerpt: The heptapeptide precursor of McC, f-MRTGNAN, is encoded by the first gene in the mcc gene clusters, mccA [11]. Considering its protein nature, it is suitable for gene-based peptide engineering. Kazakov et al. first applied site-directed mutagenesis on the mccA gene, systematically replacing the second to seventh codons of mccA encoding 19 standard amino acids for a total of 114 mutations.

trypsin = assay: Remaining amount by RP-HPLC after trypsin treatment; settings: trypsin treatment 3 h
Experimental: To test whether the variants were tolerant to trypsin or other digestive enzymes, the amount of the remaining McC and its analogues remaining was determined by RP-HPLC after trypsin, pepsin, and chymotrypsin treated for 3 h (Table S2), and the inhibition zones of trypsin-treated variants were tested using the same method (Table 2).
The fermentation broth was collected via centrifugation at 12,000× g at 4 °C for 10 min; the supernatants contained the McC variants. The supernatants and trypsin were mixed at a ratio of 9:1 (v/v; the final concentration of trypsin was 50 μg/mL) and incubated in a bath at 37 °C for 3 h. The pH was adjusted to 6.8. The pH value of the fermentation broth was measured before and after treatment, and an approximate pH value of 7 was considered normal.

chymotrypsin [2] = settings: cited from earlier work
Excerpt: (§1) The McC as a new generation of antimicrobials is now receiving increased attention because of its antimicrobial activity against a wide range of Gram-negative bacteria, including Escherichia, Klebsiella, Salmonella, Shigella, and Proteus species. However, […] proteolytic enzymes in the stomach and the small intestine, such as pepsin, trypsin, and chymotrypsin, need to be considered before the application of McC or other microcins in different fields.

[3] = cited from earlier work
Excerpt: as §1

CSCC[C@H](NC=O)C(=O)N[C@@H](CCC(=O)O)C(=O)N[C@H](C(=O)NCC(=O)N[C@@H](CC(N)=O)C(=O)N[C@@H](C)C(=O)N[C@@H](CC(=O)O)C(=O)NP(=O)(OCCCN)OC[C@H]1O[C@@H](n2cnc3c(N)ncnc32)[C@H](O)[C@@H]1O)[C@@H](C)O (stereo partly shown) [R2E] (HELM PEPTIDE1{[O=C[*:2]].M.E.T.G.N.A.[NCCCOP(=O)(NC(=O)[C@H](CC(=O)O)N[*:1])OC[C@H]1O[C@@H](n2cnc3c(N)ncnc32)[C@H](O)[C@@H]1O]}$$$$V2.0)
bacteriostatic effect on indicator strain K88 (E. coli K88): no bacteriostatic effects
remaining at 3 h (chymotrypsin [1]): 38.4 ± 0.97%
remaining at 3 h (pepsin): 90.72 ± 0.74%

CSCC[C@H](NC=O)C(=O)N[C@@H](CC(N)=O)C(=O)N[C@H](C(=O)NCC(=O)N[C@@H](CC(N)=O)C(=O)N[C@@H](C)C(=O)N[C@@H](CC(=O)O)C(=O)NP(=O)(OCCCN)OC[C@H]1O[C@@H](n2cnc3c(N)ncnc32)[C@H](O)[C@@H]1O)[C@@H](C)O (stereo partly shown) [R2N] (HELM PEPTIDE1{[O=C[*:2]].M.N.T.G.N.A.[NCCCOP(=O)(NC(=O)[C@H](CC(=O)O)N[*:1])OC[C@H]1O[C@@H](n2cnc3c(N)ncnc32)[C@H](O)[C@@H]1O]}$$$$V2.0)
bacteriostatic effect on indicator strain K88 (E. coli K88): no bacteriostatic effects
remaining at 3 h (chymotrypsin [1]): 37.7 ± 1.1%
remaining at 3 h (pepsin): 88.79 ± 0.88%

CSCC[C@H](NC=O)C(=O)N1CCC[C@H]1C(=O)N[C@H](C(=O)NCC(=O)N[C@@H](CC(N)=O)C(=O)N[C@@H](C)C(=O)N[C@@H](CC(=O)O)C(=O)NP(=O)(OCCCN)OC[C@H]1O[C@@H](n2cnc3c(N)ncnc32)[C@H](O)[C@@H]1O)[C@@H](C)O (stereo partly shown) [R2P] (HELM PEPTIDE1{[O=C[*:2]].M.P.T.G.N.A.[NCCCOP(=O)(NC(=O)[C@H](CC(=O)O)N[*:1])OC[C@H]1O[C@@H](n2cnc3c(N)ncnc32)[C@H](O)[C@@H]1O]}$$$$V2.0)
bacteriostatic effect on indicator strain K88 (E. coli K88): no bacteriostatic effects
remaining at 3 h (chymotrypsin [1]): 42.8 ± 0.76%
remaining at 3 h (pepsin): 86.9 ± 1.24%

CSCC[C@H](NC=O)C(=O)N[C@@H](Cc1c[nH]c2ccccc12)C(=O)N[C@H](C(=O)NCC(=O)N[C@@H](CC(N)=O)C(=O)N[C@@H](C)C(=O)N[C@@H](CC(=O)O)C(=O)NP(=O)(OCCCN)OC[C@H]1O[C@@H](n2cnc3c(N)ncnc32)[C@H](O)[C@@H]1O)[C@@H](C)O (stereo partly shown) [R2W] (HELM PEPTIDE1{[O=C[*:2]].M.W.T.G.N.A.[NCCCOP(=O)(NC(=O)[C@H](CC(=O)O)N[*:1])OC[C@H]1O[C@@H](n2cnc3c(N)ncnc32)[C@H](O)[C@@H]1O]}$$$$V2.0)
antimicrobial activity of mccA substitution variants (indicator bacteria): bacteriostatic
bacteriostatic effect on indicator strain K88 (E. coli K88): no bacteriostatic effects
remaining at 3 h (chymotrypsin [1]): 41.3 ± 1.03%
remaining at 3 h (pepsin): 91.3 ± 1.26%

MRPGNAN [T3P]
bacteriostatic effect on indicator strain K88 (E. coli K88): no bacteriostatic effects
degradation by / resistance to trypsin (trypsin): no longer degraded by trypsin; also recorded: exhibited resistance to trypsin

MRPTGNAN
bacteriostatic effect on indicator strain K88 (E. coli K88): no bacteriostatic effects
degradation by / resistance to trypsin (trypsin): no longer degraded by trypsin; also recorded: exhibited resistance to trypsin

microcin J25 (GGAGHVPEYFVGIGTPISFYG; ends and bridges not checked; UniProt Q9X2V7 38-58, looked up) [microcin studied by Yu et al]
degradation upon exposure to chymotrypsin (chymotrypsin [2]): completely degraded
stability in the gastrointestinal tract [3]: stable
